This assay has as its target T1, human URAT1 (Homo sapiens, UniProt Q96S37).
T1 construct: Full-length cDNA of human URAT1 (hURAT1)
T1 sequence (Q96S37 1-553): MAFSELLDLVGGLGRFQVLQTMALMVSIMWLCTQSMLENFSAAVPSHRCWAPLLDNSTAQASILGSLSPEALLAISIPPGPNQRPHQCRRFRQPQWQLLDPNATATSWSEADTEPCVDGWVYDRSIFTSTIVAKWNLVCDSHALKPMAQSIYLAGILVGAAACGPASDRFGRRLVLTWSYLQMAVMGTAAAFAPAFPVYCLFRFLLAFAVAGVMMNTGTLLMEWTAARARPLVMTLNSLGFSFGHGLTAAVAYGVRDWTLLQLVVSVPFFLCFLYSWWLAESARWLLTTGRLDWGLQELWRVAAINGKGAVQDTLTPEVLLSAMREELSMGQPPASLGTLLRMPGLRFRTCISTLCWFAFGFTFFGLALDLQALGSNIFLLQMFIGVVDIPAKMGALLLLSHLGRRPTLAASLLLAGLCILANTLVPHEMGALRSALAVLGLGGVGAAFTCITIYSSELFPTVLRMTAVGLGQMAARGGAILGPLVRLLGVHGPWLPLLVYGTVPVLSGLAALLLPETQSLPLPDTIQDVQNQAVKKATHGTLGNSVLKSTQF
The assay can be described thus: Test for inhibition of uric acid transport using human URAT1-expressing cells.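 For all read-outs here: three stars up to 0.2 µM two stars 0.2-2 µM one star 2-20 µM.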 In kind it is cell-based. Particulars: HEK 293 cells expressing human URAT1, 14C-labeled uric acid 25 μM, uptake 37° C. for 5 min; for IC50: read-out: Inhibitory Activity (IC50 of uric acid transport inhibition). As to the method:
(1) Preparation of the Test Compound
The test compound was dissolved in DMSO (produced by Sigma) to a concentration of 20 mM and was subsequently used by diluting to desired concentrations.
(2) Test for Inhibition of Uric Acid Transport Using Human URAT1-Expressing Cells;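 note: three stars up to 0.2 µM two stars 0.2-2 µM one star 2-20 µM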
Full-length cDNA of human URAT1 (hURAT1) (produced by OriGene Technologies, Inc., NCBI Reference Sequence: NM 144585) was subcloned into an expression vector, pCMV6-Kan/Neo (produced by OriGene Technologies, Inc.), and hURAT1 gene was transfected into human embryonic kidney-derived cells (HEK 293 cells) by liposome method using Lipofectamine 2000 (produced by Invitrogen Corporation), whereupon HEK 293 cells expressing human URAT1 gene were screened by its Geneticin resistance. By a method similar to the following method, functional expression of human URAT1 gene was confirmed by using transport of ^14C-labeled uric acid into the cells as an index.
The HEK 293 cells expressing human URAT1 were seeded in a 24-well cell culture dish to a density of 3×10^5 cells/mL/well and were cultured in Dulbecco's modified Eagle's medium (D-MEM medium) containing 10% fetal bovine serum at 37° C. for 2 days. Thereafter, the following test for inhibition of uric acid transport was performed.
After the medium was removed by aspiration from each well, the medium was replaced with a solution obtained by substituting NaCl in Hank's Balanced Salt Solution (HBSS) with Na gluconate (hereinafter, HBSS/Na-gluconate) and the cells were preincubated at 37° C. for about 10 minutes. HBSS/Na-gluconate was removed by aspiration and a ^14C-uric acid solution that was warmed at 37° C. in advance containing various concentrations of the Example compound described in (1) and a radioactive ligand (^14C-labeled uric acid; final concentration 25 μM) was added and an uptake reaction was carried out by incubating at 37° C. for 5 min. After the incubation, ^14C-labeled uric acid solution was removed by aspiration and the cells were washed three times with ice-cold HBSS. The HEK 293 cells expressing human URAT1 were lysed in 0.2 mol/L aqueous NaOH (hereafter, the cell sample) and the cell samples were collected. The cell sample and a liquid scintillation liquid, ULTIMA GOLD (produced by PerkinElmer, Inc.) were mixed and the radioactivity was measured by a liquid scintillation counter (Beckman Coulter, Inc.).
The uric acid transport rate of the Example compound at each concentration (% of control uptake) was calculated relative to the radioactivity (radioactivity in human URAT1 expressing HEK 293 cells without addition of the Example compound (DMSO addition)) showing URAT1-specific uric acid transport as 100%, and the concentration (IC50) of the Example compound at which the uric acid transport rate is inhibited by 50% was determined. In addition, the symbols (*, **, and ***) in the table represent the following inhibitory activity values: • IC50≦_ 0.2 μM: *** • 0.2 μM<IC50≦2 μM: ** • 2 μM<IC50≦20 μM: *

As to `Cc1nc(Oc2cnccc2Br)n(Cc2cc(Cl)ccc2Cl)c1C(=O)O` [Compound A258, 2-((4-bromopyridin-3-yl)oxy)-1-(2,5-dichlorobenzyl)-4-methyl-1H-imidazole-5-carboxylic acid], the “Inhibitory Activity (IC50 of uric acid transport inhibition)” value (from here on “Inhibitory Activity”) is “* * *”. For `CN(C)Cc1nc(-c2cncc(Cl)c2)n(Cc2cc(Cl)ccc2Cl)c1C(=O)O` [Compound A192, 2-(5-chloropyridin-3-yl)-1-(2,5-dichlorobenzyl)-4-((dimethylamino)methyl)-1H-imidazole-5-carboxylic acid], the “Inhibitory Activity” value is recorded as “* *”. Same read-out and setting: as for `O=C(O)/C=C/c1ccc(-c2cncc(F)c2)n1Cc1cc(Cl)ccc1Cl` [Compound B35, (E)-3-(1-(2,5-dichlorobenzyl)-2-(5-fluoropyridin-3-yl)-1H-pyrrol-5-yl)acrylic acid], the entry is “* * *”; as for `Cc1ccc(Cn2c(C(=O)O)ccc2-c2cccnc2)c2ccccc12` [Compound B2, 1-((4-methylnaphthalen-1-yl)methyl)-2-(pyridin-3-yl)-1H-pyrrole-5-carboxylic acid], “* * *”. On to `Cc1nc(-c2cncc(OCCO)c2)n(Cc2cc(Cl)ccc2Cl)c1C(=O)O` [Compound A186], for which the IC50 (as a rule, the concentration that gives 50% inhibition) is 2 to 20 µM. For `Cc1nc(-c2cccnc2)n(Cc2ccccc2Cl)c1C(=O)O` [Compound A51], the IC50 fell in the range of 2 to 20 µM.

In the case of `Cc1nc(Oc2cccnc2Br)n(Cc2cc(Cl)ccc2Cl)c1C(=O)O` [Compound A254, 2-((2-bromopyridin-3-yl)oxy)-1-(2,5-dichlorobenzyl)-4-methyl-1H-imidazole-5-carboxylic acid], the “Inhibitory Activity” value is “* * *”.

For the compound `Cc1nc(-c2cccnc2)n(Cc2ccccc2C(F)(F)F)c1C(=O)O` [Compound A60], the IC50 was in the range of 2 to 20 µM. `CCc1nc(-c2cccnc2)n(Cc2cccc3ccccc23)c1C(=O)O` [Compound A10, 4-ethyl-1-(naphthalen-1-ylmethyl)-2-(pyridin-3-yl)-1H-imidazole-5-carboxylic acid]: the “Inhibitory Activity” value is given as “* *”.

`O=C(O)c1c(CN2CCCC2)nc(-c2cncc(Cl)c2)n1Cc1cc(Cl)ccc1Cl` [Compound A194, 2-(5-chloropyridin-3-yl)-1-(2,5-dichlorobenzyl)-4-(pyrrolidin-1-ylmethyl)-1H-imidazole-5-carboxylic acid]: the “Inhibitory Activity” value is “* * *”. Consider `COc1ncccc1-c1nc(C)c(C(=O)O)n1Cc1cccc2ccccc12` [Compound A125], for which the IC50 is 2 to 20 µM. Still for that read-out and setting: as for `Cc1nc(-c2cccnc2)n(Cc2csc3ccccc23)c1C(=O)O` [Compound A16], the figure is 2 to 20 µM. Consider `CC(C)(O)c1nc(-c2cncc(F)c2)n(Cc2cc(Cl)ccc2Cl)c1C(=O)O` [Compound A212, 1-(2,5-dichlorobenzyl)-2-(5-fluoropyridin-3-yl)-4-(2-hydroxypropan-2-yl)-1H-imidazole-5-carboxylic acid], for which the “Inhibitory Activity” value is listed as “* * *”. In the case of `Cc1nc(-c2cncc(Cl)c2)n(Cc2cc(Cl)sc2Cl)c1C(=O)O` [Compound A226], the “Inhibitory Activity” value is “* * *”. As for `CC(C)c1nc(-c2cccnc2)n(Cc2csc3ccccc23)c1C(=O)O` [Compound A40, 1-(benzo[b]thiophen-3-ylmethyl)-4-isopropyl-2-(pyridin-3-yl)-1H-imidazole-5-carboxylic acid], the “Inhibitory Activity” value is recorded as “* *”. In the case of `Cc1nc(-c2cccnc2)n(Cc2cc(Cl)sc2Cl)c1C(=O)O` [Compound A79, 1-((2,5-dichlorothiophen-3-yl)methyl)-4-methyl-2-(pyridin-3-yl)-1H-imidazole-5-carboxylic acid], the “Inhibitory Activity” value was “* *”. On the same count and under the same terms, as for `Cc1nc(-c2cncc(OCc3ccccc3)c2)n(Cc2cc(Cl)ccc2Cl)c1C(=O)O` [Compound A190, 2-(5-(benzyloxy)pyridin-3-yl)-1-(2,5-dichlorobenzyl)-4-methyl-1H-imidazole-5-carboxylic acid], the entry is “* *”; as for `COc1nc(-c2cccnc2)n(Cc2cc(Cl)ccc2Cl)c1C(=O)O` [Compound A96, 1-(2,5-dichlorobenzyl)-4-methoxy-2-(pyridin-3-yl)-1H-imidazole-5-carboxylic acid], “* * *”. Take `COc1cccc(F)c1Oc1cncc(-c2nc(C)c(C(=O)O)n2Cc2cc(Cl)ccc2Cl)c1` [Compound A184]: the half-inhibitory concentration (IC50) was in the range of 2 to 20 µM. For the compound `CC(C)(Sc1cnc(-c2cncc(Cl)c2)n1Cc1cc(Cl)ccc1Cl)C(=O)O` [Compound A262, 2-((2-(5-chloropyridin-3-yl)-1-(2,5-dichlorobenzyl)-1H-imidazol-5-yl)thio)-2-methylpropanoic acid], the “Inhibitory Activity” value is on record as “* *”. Same read-out and setting: under `Clc1ccc(Cl)c(Cn2c(-c3nnn[nH]3)cnc2-c2cccnc2)c1` [Compound A110, 3-(1-(2,5-dichlorobenzyl)-5-(1H-tetrazol-5-yl)-1H-imidazol-2-yl)pyridine] stands “* *”; under `O=C(O)c1c(Oc2ccc(F)cc2)nc(-c2cccnc2)n1Cc1cc(Cl)ccc1Cl` [Compound A100, 1-(2,5-dichlorobenzyl)-4-(4-fluorophenoxy)-2-(pyridin-3-yl)-1H-imidazole-5-carboxylic acid], “* * *”. Regarding `COc1ccccc1Oc1cncc(-c2nc(C)c(C(=O)O)n2Cc2cccc3ccccc23)c1` [Compound A131], the IC50 was 2 to 20 µM.

Take `Cc1cncc(-c2ccc(C(=O)O)n2Cc2cc(Cl)ccc2Cl)c1` [Compound B13, 1-(2,5-dichlorobenzyl)-2-(5-methylpyridin-3-yl)-1H-pyrrole-5-carboxylic acid]: the “Inhibitory Activity” value is listed as “* * *”. As to `O=C(O)c1c(C2CC2)nc(-c2cccnc2)n1Cc1cccc2ccccc12` [Compound A11, 4-cyclopropyl-1-(napthalen-1-ylmethyl)-2-(pyridin-3-yl)-1H-imidazole-5-carboxylic acid], the “Inhibitory Activity” value is on record as “* *”. `CS(=O)(=O)NC(=O)c1c(C2CC2)nc(-c2cccnc2)n1Cc1cccc2ccsc12` [Compound A117, 1-(benzo[b]thiophen-7-ylmethyl)-4-cyclopropyl-N-(methylsulfonyl)-2-(pyridin-3-yl)-1H-imidazole-5-carboxamide]: the “Inhibitory Activity” value is “* *”.

With `O=C(O)c1ccc(-c2cccnc2)n1Cc1csc2cccc(Br)c12` [Compound B3, 1-((4-bromobenzo[b]thiophen-3-yl)methyl)-2-(pyridin-3-yl)-1H-pyrrole-5-carboxylic acid], the “Inhibitory Activity” value was “* * *”. Take `Cc1ccc2ccccc2c1Cn1c(-c2cccnc2)nc(C)c1C(=O)O` [Compound A4]: the IC50 lay within 2 to 20 µM. Consider `CC(C)c1nc(-c2cccnc2)n(Cc2cccc3ccccc23)c1C(=O)O` [Compound A24, 4-isopropyl-1-(naphthalen-1-ylmethyl)-2-(pyridin-3-yl)-1H-imidazole-5-carboxylic acid], for which the “Inhibitory Activity” value is “* *”.
